Test results taken from paper PMC9475448, “What a difference a methylene makes: replacing Glu with Asp or Aad in the Lys-urea-Glu pharmacophore of PSMA-targeting radioligands to reduce kidney and salivary gland uptake” (Theranostics, 2022).

Assays:
LNCaP tumor-bearing mice [1] = assay: Longitudinal SPECT/CT imaging of 177Lu-labeled ligands; assay type: in vivo
Protocol: SPECT/CT imaging experiments were conducted using the MILabs (Utrecht, The Netherlands) U-SPECT-II/CT scanner. Each tumor-bearing mouse (n = 1-2 was injected with ∼37 MBq (50-250 pmol) of ^177Lu-labeled compound through a lateral caudal tail vein. The mice were imaged at 1, 4, 24, 72, and 120 h after injection. At each time point, a 5-min CT scan was conducted first for anatomical reference followed by 2 × 30-min static emission scans acquired in list mode.

LNCaP tumor-bearing mice [2] = assay: Ex vivo biodistribution of 177Lu-labeled ligands in LNCaP tumor-bearing NRG mice
[3] = 1 h post-injection, listed as [177Lu]Lu-PSMA-617
[4] = 4 h post-injection, listed as [177Lu]Lu-PSMA-617

[^177Lu]Lu-PSMA-617
Excretion pathway (SPECT imaging) (LNCaP tumor-bearing mice [1]; mouse, in vivo): excreted mainly via the renal pathway | Tumor size change in SPECT/CT images (LNCaP tumor-bearing mice [1]; ~37 MBq injected): tumors shrank from Day 1 to Day 5 | Adrenal glands uptake (LNCaP tumor-bearing mice [2]; 1 h post-injection): 3.025 ± 0.939 %IA/g | Blood uptake (LNCaP tumor-bearing mice [2]; 1 h post-injection): 0.750 ± 0.119 %IA/g | Blood:Salivary gland uptake ratio (LNCaP tumor-bearing mice [2]; 1 h post-injection): < 1.0 | Bone uptake (LNCaP tumor-bearing mice [2]; 1 h post-injection): 0.118 ± 0.026 %IA/g | Brain uptake (LNCaP tumor-bearing mice [2]; 1 h post-injection): 0.028 ± 0.007 %IA/g | Fat uptake (LNCaP tumor-bearing mice [2]; 1 h post-injection): 0.327 ± 0.069 %IA/g | Heart uptake (LNCaP tumor-bearing mice [2]; 1 h post-injection): 0.294 ± 0.045 %IA/g | Intestines uptake (LNCaP tumor-bearing mice [2]; 1 h post-injection): 0.275 ± 0.032 %IA/g | Kidneys uptake (LNCaP tumor-bearing mice [2]; 1 h post-injection): 79.7±11.7 %IA/g | Lacrimal glands uptake (LNCaP tumor-bearing mice [2]; 1 h post-injection): 0.068 ± 0.022 %IA/g | Liver uptake (LNCaP tumor-bearing mice [2]; 1 h post-injection): 0.224 ± 0.030 %IA/g | Lungs uptake (LNCaP tumor-bearing mice [2]; 1 h post-injection): 1.377 ± 0.152 %IA/g | Muscle uptake (LNCaP tumor-bearing mice [2]; 1 h post-injection): 0.177 ± 0.032 %IA/g | Pancreas uptake (LNCaP tumor-bearing mice [2]; 1 h post-injection): 0.387 ± 0.074 %IA/g | Salivary glands uptake (LNCaP tumor-bearing mice [2]; 1 h post-injection): 1.78±0.38 %IA/g | Spleen uptake (LNCaP tumor-bearing mice [2]; 1 h post-injection): 3.666 ± 1.342 %IA/g | Stomach uptake (LNCaP tumor-bearing mice [2]; 1 h post-injection): 0.130 ± 0.054 %IA/g | Testes uptake (LNCaP tumor-bearing mice [2]; 1 h post-injection): 0.433 ± 0.068 %IA/g | Thyroid uptake (LNCaP tumor-bearing mice [2]; 1 h post-injection): 0.556 ± 0.073 %IA/g | Tumor uptake (LNCaP tumor-bearing mice [2]; 1 h post-injection): 16.5±2.46 %IA/g | Tumor:Blood uptake ratio (LNCaP tumor-bearing mice [2]; 1 h post-injection): 22.5 ± 4.07 | Tumor:Kidney uptake ratio (LNCaP tumor-bearing mice [2]; 1 h post-injection): 0.21 ± 0.04 | Tumor:Muscle uptake ratio (LNCaP tumor-bearing mice [2]; 1 h post-injection): 94.3 ± 12.8 | Tumor:Salivary gland uptake ratio (LNCaP tumor-bearing mice [2]; 1 h post-injection): 9.81 ± 3.33 | Blood:Salivary gland uptake ratio (LNCaP tumor-bearing mice [2]; [3]): 0.44 ± 0.12 | Kidneys uptake (LNCaP tumor-bearing mice [2]; [3]): 79.67 ± 11.68 %IA/g | Salivary glands uptake (LNCaP tumor-bearing mice [2]; [3]): 1.775 ± 0.381 %IA/g | Tumor uptake (LNCaP tumor-bearing mice [2]; [3]): 16.48 ± 2.456 %IA/g | Adrenal glands uptake (LNCaP tumor-bearing mice [2]; 4 h post-injection): 0.469 ± 0.527 %IA/g | Blood uptake (LNCaP tumor-bearing mice [2]; 4 h post-injection): 0.031 ± 0.017 %IA/g | Blood:Salivary gland uptake ratio (LNCaP tumor-bearing mice [2]; 4 h post-injection): 0.20 ± 0.06 | Bone uptake (LNCaP tumor-bearing mice [2]; 4 h post-injection): 0.017 ± 0.007 %IA/g | Brain uptake (LNCaP tumor-bearing mice [2]; 4 h post-injection): 0.011 ± 0.001 %IA/g | Fat uptake (LNCaP tumor-bearing mice [2]; 4 h post-injection): 0.028 ± 0.011 %IA/g | Heart uptake (LNCaP tumor-bearing mice [2]; 4 h post-injection): 0.026 ± 0.006 %IA/g | Intestines uptake (LNCaP tumor-bearing mice [2]; 4 h post-injection): 0.135 ± 0.042 %IA/g | Kidneys uptake (LNCaP tumor-bearing mice [2]; 4 h post-injection): 13.1±9.60 %IA/g | Lacrimal glands uptake (LNCaP tumor-bearing mice [2]; 4 h post-injection): 0.079 ± 0.056 %IA/g | Liver uptake (LNCaP tumor-bearing mice [2]; 4 h post-injection): 0.056 ± 0.012 %IA/g | Lungs uptake (LNCaP tumor-bearing mice [2]; 4 h post-injection): 0.123 ± 0.052 %IA/g | Muscle uptake (LNCaP tumor-bearing mice [2]; 4 h post-injection): 0.020 ± 0.004 %IA/g | Pancreas uptake (LNCaP tumor-bearing mice [2]; 4 h post-injection): 0.031 ± 0.012 %IA/g | Salivary glands uptake (LNCaP tumor-bearing mice [2]; 4 h post-injection): 0.14±0.04 %IA/g | Spleen uptake (LNCaP tumor-bearing mice [2]; 4 h post-injection): 0.222 ± 0.117 %IA/g | Stomach uptake (LNCaP tumor-bearing mice [2]; 4 h post-injection): 0.029 ± 0.017 %IA/g | Testes uptake (LNCaP tumor-bearing mice [2]; 4 h post-injection): 0.055 ± 0.018 %IA/g | Thyroid uptake (LNCaP tumor-bearing mice [2]; 4 h post-injection): 0.065 ± 0.027 %IA/g | Tumor uptake (LNCaP tumor-bearing mice [2]; 4 h post-injection): 14.24 ± 1.804 %IA/g | Tumor:Blood uptake ratio (LNCaP tumor-bearing mice [2]; 4 h post-injection): 593 ± 338 | Tumor:Kidney uptake ratio (LNCaP tumor-bearing mice [2]; 4 h post-injection): 1.58 ± 0.98 | Tumor:Muscle uptake ratio (LNCaP tumor-bearing mice [2]; 4 h post-injection): 748 ± 180 | Tumor:Salivary gland uptake ratio (LNCaP tumor-bearing mice [2]; 4 h post-injection): 105 ± 28.0 | Kidneys uptake (LNCaP tumor-bearing mice [2]; [4]): 13.06 ± 9.598 %IA/g | Salivary glands uptake (LNCaP tumor-bearing mice [2]; [4]): 0.142 ± 0.039 %IA/g | Adrenal glands uptake (LNCaP tumor-bearing mice [2]; 24 h post-injection): 0.032 ± 0.010 %IA/g | Blood uptake (LNCaP tumor-bearing mice [2]; 24 h post-injection): 0.004 ± 0.001 %IA/g | Blood:Salivary gland uptake ratio (LNCaP tumor-bearing mice [2]; 24 h post-injection): 0.10 ± 0.02 | Bone uptake (LNCaP tumor-bearing mice [2]; 24 h post-injection): 0.009 ± 0.005 %IA/g | Brain uptake (LNCaP tumor-bearing mice [2]; 24 h post-injection): 0.010 ± 0.002 %IA/g | Fat uptake (LNCaP tumor-bearing mice [2]; 24 h post-injection): 0.009 ± 0.008 %IA/g | Heart uptake (LNCaP tumor-bearing mice [2]; 24 h post-injection): 0.009 ± 0.003 %IA/g | Intestines uptake (LNCaP tumor-bearing mice [2]; 24 h post-injection): 0.059 ± 0.039 %IA/g | Kidneys uptake (LNCaP tumor-bearing mice [2]; 24 h post-injection): 0.658 ± 0.159 %IA/g | Lacrimal glands uptake (LNCaP tumor-bearing mice [2]; 24 h post-injection): 0.050 ± 0.024 %IA/g | Liver uptake (LNCaP tumor-bearing mice [2]; 24 h post-injection): 0.043 ± 0.027 %IA/g | Lungs uptake (LNCaP tumor-bearing mice [2]; 24 h post-injection): 0.028 ± 0.005 %IA/g | Muscle uptake (LNCaP tumor-bearing mice [2]; 24 h post-injection): 0.005 ± 0.001 %IA/g | Pancreas uptake (LNCaP tumor-bearing mice [2]; 24 h post-injection): 0.008 ± 0.002 %IA/g | Salivary glands uptake (LNCaP tumor-bearing mice [2]; 24 h post-injection): 0.018 ± 0.003 %IA/g | Spleen uptake (LNCaP tumor-bearing mice [2]; 24 h post-injection): 0.039 ± 0.007 %IA/g
